Results as given in patent publication EP4782450A1, “NOVEL SKELETAL DERIVATIVE EFFECTIVE FOR HER2 MUTATION, AND PHARMACEUTICAL COMPOSITION COMPRISING SAME” (Hanmi Pharm. Co., Ltd., priority 2023, dated 2025).
Like-named read-outs stand apart in the source and are kept apart here.

What was measured:
[1] = tested on: Ba/F3 HER2 A775insYVMA; test: Growth inhibition of Ba/F3 cells engineered to overexpress HER2 A775_G776insYVMA (CellTiter-Glo luminescence); assay type: cell-based; conditions: concentrations 1000 to 0.32 nM, read-out: Ba/F3 HER2^YVMA GI50 class
Protocol: (§1) Experimental Example: Growth inhibition of Ba/F3 HER2 A775insYVMA and wild-type Ba/F3 cells
(§2) In this Experimental Example, the compounds obtained in Examples 1 to 92 were evaluated for their ability to inhibit growth of cells harboring either the HER2 A775insYVMA mutation or wild-type EGFR. For this purpose, Ba/F3 cells (ATCC, USA) were genetically engineered to overexpress either HER2 A775_G776insYVMA or wild-type EGFR, and the growth of these engineered Ba/F3 cells were monitored in the presence of the compounds described in the Examples to evaluate their effects on growth inhibition.
(§3) Specifically, culture flasks of the engineered Ba/F3 cells suspended in RPMI 1640 medium supplemented with 10% fetal bovine serum (FBS) and 1% penicillin/streptomycin (Gibco BRL, USA) were placed in a cell incubator and incubated at 37°C and 5% CO2 level to allow them to reach a stable logarithmic growth phase. The cells were then harvested by centrifugation to remove the old media and placed into a 96-well plate by dividing them into 100 µL aliquots per well at a dilution of 1×10^5 cells/mL in fresh media. Each of the compounds prepared in the preceding Examples were dissolved in 99.5% (cell culture grade) dimethylsulfoxide (DMSO) to prepare a stock solution of 10 mM concentration, which were serially diluted in the culture medium to final concentrations of 1000, 200, 40, 8, 1.6 and 0.32 nM for HER2 A775insYVMA Ba/F3 cells and concentrations of 10000, 5000, 1000, 200, 40 and 8 nM for wild-type EGFR overexpressing Ba/F3 cells.
(§4) To each aliquot of cells in the 96-well plate, a 50 µL test solution comprising one of the compounds was added to result in each well a 150 µL volume of cells with a compound in a final concentration ranging from 10 µM to 0.32 nM. The Ba/F3 cells treated with the test solution were incubated for 72 hours at 37°C and 5% CO2 level and underwent a 30-minute acclimation by placing the 96-well plate carrying the cells in ambient temperature. Thereafter, to each well was added 50 µL CellTiter-Glo® Luminescent Cell Assay Reagent (CTG, Promega, USA). After allowing 10 minutes to stabilize the signal, luminescence intensity was measured using a microplate reader. The half-maximal growth inhibition concentration (GI50) was calculated from the luminescence readout of the test compounds with the difference between the initial and final cell densities for the well untreated with a compound set at 100% growth. Nonlinear regression analysis based on log[inhibitor] vs. normalized response mode of the Graph Prism software was used for calculating GI50 for each compound, which are summarized in Table 6. The calculated GI50 values are classified in Table 6 into four categories: A for GI50 values less than 100 nM, B for GI50 values more than 100 nM but less than 1,000 nM, C for GI50 values more than 1,000 nM but less than 5,000 nM, and D for GI50 values of more than 5,000 nM.

[2] = tested on: wild-type EGFR overexpressing Ba/F3 cells; test: Growth inhibition of Ba/F3 cells engineered to overexpress wild-type EGFR (CellTiter-Glo luminescence); assay type: cell-based; conditions: concentrations 10000 to 8 nM, read-out: Ba/F3 EGFR^WT GI50 class
Protocol: as §1, §2, §3, §4

Row | Compound | GI50 ([1]; Mus musculus, BaF3, 72 hours) [nM] | GI50 ([2]; Mus musculus, BaF3, 72 hours) [nM] | GI50 ([1]; 72 hours) [nM] | GI50 ([2]; 72 hours) [nM]
1 | C=CC(=O)N(C)CC#Cc1cc2c(Nc3ccc(Oc4ccn5ncnc5c4)c(C)c3)ncnc2cc1OC [Example 73, N-(3-(4-((4-([1,2,4]triazolo[1,5-a]pyridin-7-yloxy)-3-methylphenyl)amino)-7-methoxyquinazolin-6-yl)prop-2-yn-1-yl)-N-methylacrylamide] | 1000 to 5000 | 1000 to 5000 |  | 
2 | C=CC(=O)N(C)CC#Cc1cnc2ncnc(Nc3ccc(Oc4ccn5ncnc5c4)c(C)c3)c2c1 [Example 66, N-(3-(4-((4-([1,2,4]triazolo[1,5-a]pyridin-7-yloxy)-3-methylphenyl)amino)pyrido[2,3-d]pyrimidin-6-yl)prop-2-yn-1-yl)-N-methylacrylamide] | 1000 to 5000 | 1000 to 5000 |  | 
3 | N-(2-((8-((4-([1,2,4]triazolo[1,5-a]pyridin-7-yloxy)-3-methylphenyl)amino)pyrimido[5,4-d]pyrimidin-2-yl)oxy)ethyl)-N-methylacrylamide [Example 4] |  |  | 1000 to 5000 | 1000 to 5000
4 | C=CC(=O)N(C)C1(/C=C/c2ccc3ncnc(Nc4ccc(Oc5ccc6c(c5)ncn6C)c(C)c4)c3n2)CC1 [Example 30, (E)-N-methyl-N-(1-(2-(4-((3-methyl-4-((1-methyl-1H-benzo[d]imidazol-5-yl)oxy)phenyl)amino)pyrido[3,2-d]pyrimidin-6-yl)vinyl)cyclopropyl)acrylamide] | 100 to 1000 | 100 to 1000 |  | 
5 | C=CC(=O)N1CC[C@H]1C#Cc1ccc2ncnc(Nc3ccc(Oc4ccn5ncnc5c4)c(C)c3)c2c1 [Example 79, (S)-1-(2-((4-((4-([1,2,4]triazolo[1,5-a]pyridin-7-yloxy)-3-methylphenyl)amino)quinazolin-6-yl)ethynyl)azetidin-1-yl)prop-2-en-1-one] | 1000 to 5000 | 1000 to 5000 |  | 
6 | Cc1cc(Nc2ncnc3ccc(/C=C/CN(C)C(=O)/C=C/CN(C)C)nc23)ccc1Oc1ccc2c(c1)ncn2C [Example 32, (E)-4-(dimethylamino)-N-methyl-N-((E)-3-(4-((3-methyl-4-((1-methyl-1H-benzo[d]imidazol-5-yl)oxy)phenyl)amino)pyrido[3,2-d]pyrimidin-6-yl)allyl)but-2-enamide] | 100 to 1000 | > 5000 |  | 
7 | C=CC(=O)N(C)CCN(C)c1ccc2ncnc(Nc3ccc(Oc4ccc5c(c4)ncn5C)c(C)c3)c2n1 [Example 18, N-methyl-N-(2-(methyl(4-((3-methyl-4-((1-methyl-1H-benzo[d]imidazol-5-yl)oxy)phenyl)amino)pyrido[3,2-d]pyrimidin-6-yl)amino)ethyl)acrylamide] | 100 to 1000 | > 5000 |  | 
8 | C=CC(=O)NC/C=C/c1ccc2ncnc(Nc3ccc(Oc4ccc5c(c4)ncn5C)c(C)c3)c2n1 [Example 33, (E)-N-(3-(4-((3-methyl-4-((1-methyl-1H-benzo[d]imidazol-5-yl)oxy)phenyl)amino)pyrido[3,2-d]pyridin-6-yl)allyl)acrylamide] | < 100 | 1000 to 5000 |  | 
9 | C=CC(=O)N1CCCC[C@H]1C#Cc1ncc2ncnc(Nc3ccc(Oc4ccc5c(c4)ncn5C)c(C)c3)c2n1 [Example 92, (S)-1-(2-((8-((3-methyl-4-((1-methyl-1H-benzo[d]imidazol-5-yl)oxy)phenyl)amino)pyrimido[5,4-d]pyrimidin-2-yl)ethynyl)piperidin-1-yl)prop-2-en-1-one] | 100 to 1000 | 100 to 1000 |  | 
10 | C=CC(=O)N(C)CCCN(C)c1ccc2ncnc(Nc3ccc(Oc4ccc5c(c4)ncn5C)c(C)c3)c2n1 [Example 20, N-methyl-N-(3-(methyl(4-((3-methyl-4-((1-methyl-1H-benzo[d]imidazol-5-yl)oxy)phenyl)amino)pyrido[3,2-d]pyrimidin-6-yl)amino)propyl)acrylamide] | 100 to 1000 | > 5000 |  | 

The remaining lines, values ahead:

Row | GI50 ([1]; Mus musculus, BaF3, 72 hours) [nM] | GI50 ([2]; Mus musculus, BaF3, 72 hours) [nM] | GI50 ([1]; 72 hours) [nM] | GI50 ([2]; 72 hours) [nM] | Compound
11 | < 100 | 1000 to 5000 |  |  | C=CC(=O)N1CC(/C=C/c2ccc3ncnc(Nc4ccc(Oc5ccc6c(c5)ncn6C)c(C)c4)c3n2)C1 [Example 28, (E)-1-(3-(2-(4-((3-methyl-4-((1-methyl-1H-benzo[d]imidazol-5-yl)oxy)phenyl)amino)pyrido[3,2-d]pyrimidin-6-yl)vinyl)azetidin-1-yl)prop-2-en-1-one]
12 | 100 to 1000 | 1000 to 5000 |  |  | C=CC(=O)N(C)CC(=O)Nc1ccc2ncnc(Nc3ccc(Oc4ccc5c(c4)ncn5C)c(C)c3)c2n1 [Example 21, N-methyl-N-(2-((4-((3-methyl-4-((1-methyl-1H-benzo[d]imidazol-5-yl)oxy)phenyl)amino)pyrido[3,2-d]pyrimidin-6-yl)amino)-2-oxoethyl)acrylamide]
13 | < 100 | 100 to 1000 |  |  | C=CC(=O)NC/C=C/c1ccc2ncnc(Nc3ccc(Oc4ccn5ccnc5c4)c(C)c3)c2n1 [Example 39, (E)-N-(3-(4-((4-(imidazo[1,2-a]pyridin-7-yloxy)-3-methylphenyl)amino)pyrido[3,2-d]pyrimidin-6-yl)allyl)acrylamide]
14 | < 100 | > 5000 |  |  | C=CC(=O)NC/C=C/c1ccc2ncnc(Nc3ccc(Oc4ccc5c(c4)ncn5C)c(C)c3Cl)c2n1 [Example 36, (E)-N-(3-(4-((2-chloro-3-methyl-4-((1-methyl-1H-benzo[d]imidazol-5-yl)oxy)phenyl)amino)pyrido[3,2-d]pyrimidin-6-yl)allyl)acrylamide]
15 | 100 to 1000 | > 5000 |  |  | C=CC(=O)Nc1cccc(/C=C/c2ccc3ncnc(Nc4ccc(Oc5ccc6c(c5)ncn6C)c(C)c4)c3n2)c1 [Example 64, (E)-N-(3-(2-(4-((3-methyl-4-((1-methyl-1H-benzo[d]imidazol-5-yl)oxy)phenyl)amino)pyrido[3,2-d]pyrimidin-6-yl)vinyl)phenyl)acrylamide]
16 | 100 to 1000 | 1000 to 5000 |  |  | Cc1cc(Nc2ncnc3ccc(/C=C/CNC(=O)/C=C/[C@H]4CCCN4C)nc23)ccc1Oc1ccc2c(c1)ncn2C [Example 58, (E)-N-((E)-3-(4-((3-methyl-4-((1-methyl-1H-benzo[d]imidazol-5-yl)oxy)phenyl)amino)pyrido[3,2-d]pyrimidin-6-yl)allyl)-3-((R)-1-methylpyrrolidin-2-yl)acrylamide]
17 | 100 to 1000 | > 5000 |  |  | C=CC(=O)N(C)CCCOc1ccc2ncnc(Nc3ccc(Oc4ccc5c(c4)ncn5C)c(C)c3)c2n1 [Example 9, N-methyl-N-(3-((4-((3-methyl-4-((1-methyl-1H-benzo[d]imidazol-5-yl)oxy)phenyl)amino)pyrido[3,2-d]pyrimidin-6-yl)oxy)propyl)acrylamide]
18 | < 100 | 1000 to 5000 |  |  | C=CC(=O)N1CCCC[C@H]1C#Cc1ccc2ncnc(Nc3ccc(Oc4ccc5c(c4)ncn5C)c(C)c3)c2n1 [Example 89, (S)-1-(2-((4-((3-methyl-4-((1-methyl-1H-benzo[d]imidazol-5-yl)oxy)phenyl)amino)pyrido[3,2-d]pyrimidin-6-yl)ethynyl)piperidin-1-yl)prop-2-en-1-one]
19 | < 100 | 1000 to 5000 |  |  | C=CC(=O)N(C)C/C=C/c1ncc2ncnc(Nc3ccc(Oc4ccc5c(c4)ncn5C)c(C)c3)c2n1 [Example 24, (E)-N-methyl-N-(3-(8-((3-methyl-4-((1-methyl-1H-benzo[d]imidazol-5-yl)oxy)phenyl)amino)pyrimido[5,4-d]pyrimidin-2-yl)allyl)acrylamide]
20 | < 100 | < 100 |  |  | C=CC(=O)N1CCC[C@@H]1C#Cc1ccc2ncnc(Nc3ccc(Oc4ccn5ncnc5c4)c(C)c3)c2c1 [Example 74, (R)-1-(2-((4-((4-([1,2,4]triazolo[1,5-a]pyridin-7-yloxy)-3-methylphenyl)amino)quinazolin-6-yl)ethynyl)pyrrolidin-1-yl)prop-2-en-1-one]
21 | < 100 | > 5000 |  |  | Cc1cc(Nc2ncnc3ccc(/C=C/CNC(=O)/C=C/CN4CCOCC4)nc23)ccc1Oc1ccc2c(c1)ncn2C [Example 60, (E)-N-((E)-3-(4-((3-methyl-4-((1-methyl-1H-benzo[d]imidazol-5-yl)oxy)phenyl)amino)pyrido[3,2-d]pyrimidin-6-yl)allyl)-4-morpholinobut-2-enamide]
